≈ marks a conversion by molar mass, not a printed value. Read-outs that look alike come from different tables or passages of the source.
Key:
HCV GT 2a = test: Activity against HCV GT 2a (data not shown); assay type: cell-based
[1] = tested on: HCV GT 3a (strain S52) replicon; test: HCV GT 3a subgenomic replicon luciferase antiviral assay in Huh7.5-3a cells; assay type: cell-based; conditions: Hepatitis C virus, GT3A, 72 h; Huh7.5-3a, GT 3a (S52), F-Luc, 3 days; read-out: EC50 HCV Replicon 3a
[2] = tested on: HCV GT 1b subgenomic reporter replicon (strain Con1); test: HCV GT 1b subgenomic replicon luciferase antiviral assay in Huh5-2 cells; assay type: cell-based; conditions: Huh5-2, GT 1b (Con1), F-Luc, 3 days, read-out: EC50 HCV Replicon 1b
[3] = Water solubility by HPLC-UV after 24 h agitation; assay type: physicochemical; conditions: thermodynamic from solid, deionized water, ambient temperature
[4] = alamarBlue reduction cytotoxicity assay in replicon cells; assay type: cell-based; conditions: human, HCV Replicon 1b cells
[5] = tested on: HCV GT 4a (strain ED43) replicon; test: HCV GT 4a subgenomic replicon luciferase antiviral assay in Huh7.5-4a cells; assay type: cell-based; conditions: Hepatitis C virus, GT4A, 72 h; Huh7.5-4a, GT 4a (ED43), F-Luc, 3 days; read-out: EC50 HCV Replicon 4a
HCV GT 1b (Con1) = test: Drug combination of 11a with daclatasvir in Huh5-2 replicon cells; assay type: cell-based
[6] = tested on: HCV GT-1b RNA (Con1 replicon); test: Viral RNA quantification by RT-qPCR in Huh5-2 replicon cells; assay type: cell-based; conditions: (+) strand HCV RNA by RT-qPCR, Huh5-2 cells, normalized to YWHAZ
[7] = tested on: HCV GT-1b replicon containing Huh-7 cells; set-up: method as in earlier work; conditions: cited from earlier work
NS5B = conditions: reported NS5B TP-2 inhibitors, Figure 1; cited from earlier work
[8] = Hepatitis C virus, GT1B, Huh-5-2, 72 h

Cc1nc(=O)c2cc(NC(=O)COc3ccc(Cl)cc3)ccc2n1-c1ccccc1 [11b, 2-(4-Chlorophenoxy)-N-(2-methyl-4-oxo-1-phenyl-1,4-dihydroquinazolin-6-yl)acetamide]
melting point: 254 °C
activity against GT 2a (HCV GT 2a): no activity
EC50 [1]: 11600 ± 1260 nM
EC50 [2, 8]: 1380 ± 40 nM
solubility at 24 h [3]: 3.5 µg/mL (≈ 8.34 µM)
CC50 at 3 days [4]: 99010 ± 90 nM
EC50 [5]: > 10000 nM

Cc1ccc(OCC(=O)Nc2ccc3c(c2)c(=O)nc(C)n3-c2ccccc2)cc1 [11a, N-(2-Methyl-4-oxo-1-phenyl-1,4-dihydroquinazolin-6-yl)-2-(p-tolyloxy)acetamide]
Combinatory effect with daclatasvir (HCV GT 1b (Con1); 11a in combination with DCV, Huh5-2, in words): additive effect
CDI (coefficient of drug interaction) (HCV GT 1b (Con1); 11a with daclatasvir (DCV), Huh5-2): ≈ 1
CDI (HCV GT 1b (Con1); DCV 30 pM + 11a 0.1 μM, Huh5-2): 0.949
CDI (HCV GT 1b (Con1); DCV 30 pM + 11a 1 μM, Huh5-2): 0.995
melting point: 268 °C
EC50 [1]: > 10000 nM
EC50 [2, 8]: 984 nM
EC50 [2]: 980 ± 60 nM
solubility at 24 h [3]: 2.7 µg/mL (≈ 6.76 µM)
CC50 at 3 days [4]: 157500 ± 30 nM
EC50 [5]: > 10000 nM
EC50 [6]: 1130 nM

CC1CCC(C(=O)N(c2cc(C#CC(C)(C)C)sc2C(=O)O)C(C)C)CC1 (stereo not drawn) [II]
EC50 [7]: 26 nM
IC50 (NS5B): 86 nM
